Test results: patent US8071575B2, “Methods and compounds for the targeted delivery of agents to bone for interaction therewith” (priority 2007, dated 2011)

Key:
Type in all cases: in vivo, Sprague-Dawley female rats
[1] = tested on: OVX rats; test: Volume fraction, ex vivo micro-computed tomography of tibia; details: present-tense example, no data or figure
Description: (§1) Animals. Six month old, bilaterally ovariectomized (OVX) or sham operated Sprague-Dawley female rats (Harlan Laboratories, Indianapolis, Ind.) were maintained at the University of Louisville Research Resources Center at 22° C. with a 12-h light/dark cycle and ad libitum access to tap water and rodent chow (Purina Laboratory Rodent Diet 5001). All animal procedures were approved by the Institutional Animal Care and Use Committee, which is certified by the American Association for Accreditation of Laboratory Animal Care.
(§2) In vivo experiments were conducted in order to investigate the efficacy of compounds of the presently-disclosed subject matter. In all of the experiments, OVX and sham operated rats were randomly divided into groups of 5-7 animals. In all of the studies experimental groups included: i) Sham-operated control (euthanized six weeks post surgery as a pretreatment control), ii) OVX control (euthanized six weeks post surgery as a pretreatment control), iii) Sham control receiving vehicle, iv) OVX control receiving vehicle, v) OVX receiving 17-ethinyl estradiol (equimolar concentration with a selected test compound), vi) OVX receiving alendronate (1.6 mg/kg), and vii) OVX receiving parathyroid hormone 1-34 (PTH) ([…]). 17-ethinyl estradiol (17 EE) is a free estrogenic agent known to be orally active, and can serve as an example of an anti-catabolic agent. Alendronate (Alen) is a bisphosphonate that is currently used to treat osteoporosis (e.g., Fosamax®, Merck & Co., Inc,), and can serve as an example of an anti-catabolic agent. Parathyroid hormone 1-34 (PTH) is an agent that can serve as an example of an anabolic agent. All compounds and vehicle (1% DMSO in corn oil) were administered three times per week orally by gavage except for PTH which was administered via a subcutaneous injection in a volume of 0.5 ml/kg body mass thrice per week. Compound administration was initiated 6 weeks following surgery and lasted for 6 weeks (18 doses total).
(§3) Compounds of the presently-disclosed subject matter were orally administered to OVX rats at various doses. As indicated above all BTE's were administered three times per week for 6 weeks.
(§4) Following 6 weeks of treatment, blood was obtained from each animal via cardiac puncture following an overnight fast and animals were subsequently euthanized via carbon dioxide asphyxiation. Blood was centrifuged immediately and the obtained serum samples were aliquoted and stored at −70° C. prior to analysis. Uteri were removed and fresh weights were obtained. Uterine masses were normalized to body mass at the end of the experiment. The left and right femora and left and right tibiae were subsequently collected from each animal, cleaned of soft tissue, and stored in saline at 4° C. prior to analysis.
Volume Fraction—Ex vivo micro-computed tomography (μCT). Volume fraction is a representative value for the amount of bone that occupies a given volume or space. High resolution image data were collected using a customized micro-CT system (ACTIS 150/225 system, BIR Inc., Lincolnshire, Ill.). The metaphysis of each right tibia was scanned over a three millimeter range and three-dimensional images were reconstructed. Data were subsequently processed to reveal the volume fraction (BV/TV) occupied by trabecular (cancellous) bone tissue, cortical bone tissue, and whole bone tissue. The resulting data provides information regarding the density of whole bone, cortical bone, and trabecular bone.

[2] = tested on: OVX rats; test: Femoral density via Archimedes' Principle (whole bone); details: OVX rats, three times per week for 6 weeks
Description: as §1, §2, §3, §4
Femoral Density via Archimedes' Principle. Right femora were submerged in distilled water and fully hydrated under a vacuum for 1 hr. Subsequently, the mass of each hydrated femur was obtained in air and when submerged in water. Densities were determined using Archimedes' Principle according to the following formula: density=[mass of hydrated femur/(mass of hydrated femur−mass of hydrated femur submerged in water)]×density of distilled water at a given temperature (See Keenan, et al. Comparison of bone density measurement techniques: DXA and Archimedes' principle. J Bone Miner Res 1997; 12:1903-7.). The obtained density measurements were associated with whole bone.

[3] = tested on: OVX rats; test: Uterine mass and uterine mass to body weight ratio in OVX rats; details: OVX rats, oral 3000 μg/kg; compared to animals treated with 17-ethinyl estradiol
Description: as §1, §2, §3, §4
Uterine Mass and Body Weight. […] Uterine mass can be used to as a measure of estrogenic effect occurring in a tissue outside the bone in response to treatment with a test compound or composition. Generally, a lower uterine mass can be associated with a decreased risk of adverse side effects associated with the test compound or composition. A ratio of uterine mass to body weight can be used to correct for any increase in uterine size attributable to the relative size of the individual animal. Body weight and/or uterine mass also serve as an indirect measures of toxicity of a test compound.

[4] = Body weight of OVX rats during treatment; details: oral 3000 μg/kg, three times per week for 6 weeks
Description: as §1
In vivo experiments were conducted in order to investigate the efficacy of compounds of the presently-disclosed subject matter. In all of the experiments, OVX and sham operated rats were randomly divided into groups of 5-7 animals. In all of the studies experimental groups included: i) Sham-operated control (euthanized six weeks post surgery as a pretreatment control), ii) OVX control (euthanized six weeks post surgery as a pretreatment control), iii) Sham control receiving vehicle, iv) OVX control receiving vehicle, v) OVX receiving 17-ethinyl estradiol (equimolar concentration with a selected test compound), vi) OVX receiving alendronate (1.6 mg/kg), and vii) OVX receiving parathyroid hormone 1-34 (PTH) ([…]). 17-ethinyl estradiol (17 EE) is a free estrogenic agent known to be orally active, and can serve as an example of an anti-catabolic agent. […]

[5] = tested on: OVX rats; test: Bone mechanical competence indentation test; details: present-tense example, no data or figure
Description: as §1, §2, §3, §4
Bone Mechanical Competence Indentation Test. After sacrifice, the left tibiae were trimmed to expose the cancellous bone of the proximal tibial metaphysis and an indentation test was performed by advancing a flat-tipped cylindrical post (1.5 mm diameter) axially into the cut surface to measure the compressive strength of the cancellous bone structure.

[6] = tested on: OVX rats; test: Rat Osteocalcin EIA (serum); details: 100 or 1000 μg/kg doses
Description: as §1
In vivo experiments were conducted in order to investigate the efficacy of compounds of the presently-disclosed subject matter. In all of the experiments, OVX and sham operated rats were randomly divided into groups of 5-7 animals. […]
Rat Osteocalcin EIA. […] Rat serum osteocalcin levels were measured using the Rat Osteocalcin EIA Kit from Biomedical Technologies, Incorporated (Stoughton, Mass.) as recommended by the manufacturer.

Structure (SMILES): COc1ccc(NC(=O)CCC(=O)OC2CCC3C4CCC5=CC(=O)CCC5(C)C4CCC23C)c(O)c1C(N)=O (stereo not shown) [Formula 33]
- volume fraction (BV/TV) of trabecular, cortical and whole bone tissue [1]: increase bone density
- whole bone density (right femora) ([2]; oral 3000 μg/kg): higher than that of the OVX animals
- ratio of uterine mass to body weight [3]: lower
- uterine mass [3]: lower
- body weight [4]: lower body weights as compared to the OVX animals
- bone strength (indentation test) [5]: increase bone strength

Structure (SMILES): COc1ccc(NC(=O)COCCOCCNC(=O)CCOC2CCC3C4CCc5cc(O)ccc5C4CCC23C)c(O)c1C(N)=O (stereo not shown) [Formula 123]
- volume fraction (BV/TV) of trabecular, cortical and whole bone tissue [1]: increase bone density
- whole bone density (right femora) ([2]; oral 10, 100, or 1000 μg/kg): in the same ranges as those animals receiving 17-ethinyl estradiol (17 EE), Alendronate (Alen), or Parathyroid hormone 1-34 (PTH)
- serum osteocalcin levels [6]: stimulates osteocalcin
- bone strength (indentation test) [5]: increase bone strength
